Measured values as given in PMC11748363, “Antimicrobial and Antiproliferative Properties of 2‐Phenyl‐N‐(Pyridin‐2‐yl)acetamides” (Chemical Biology & Drug Design, 2025).
Converted amounts (≈) assume the structure as drawn. Like-named read-outs stand apart in the source and are kept apart here.

Experiments:
[1] = system: Staphylococcus epidermidis CCM 4418, ATCC 12228; assay: Antibacterial microdilution broth MIC, SE; assay type: cell-based
[2] = system: Klebsiella pneumoniae CCM 4415, ATCC 10031; assay: Antibacterial microdilution broth MIC, KP
[3] = system: Candida parapsilosis CCM 8260, ATCC 22019; assay: Antifungal microdilution broth MIC, CP; conditions: Lodderomyces parapsilosis
[4] = system: Aspergillus fumigatus ATCC 204305; assay: Antifungal microdilution broth MIC, AF
HepG2 cell line = assay: Cytotoxicity CellTiter 96, HepG2; assay type: cell-based, human; conditions: Homo sapiens, HepG2, 24 h, 24 h incubation; ^c compound precipitated in the testing medium; ^d over the limit of tested concentrations
Description: The cytotoxicity of final compounds was determined in human hepatocellular carcinoma cell line HepG2.
Cytotoxicity determination
Human hepatocellular liver carcinoma cell line HepG2 purchased from Health Protection Agency Culture Collections (ECACC, Salisbury, UK) was cultured in MEM (Minimum Essentials Eagle Medium, Sigma–Aldrich) supplemented with 10% fetal bovine serum (PAA Laboratories, Pasching, Austria), 1% L-glutamine solution (Sigma–Aldrich) and non-essential amino acid solution (Sigma–Aldrich) in a humidified atmosphere containing 5% CO2 at 37 °C. For subculturing, the cells were harvested after trypsin/EDTA (Sigma–Aldrich) treatment at 37 °C. To evaluate cytotoxicity, the cells treated with the tested substances were used as experimental groups whereas untreated HepG2 cells served as controls. The cells were seeded in density 10,000 cells per well in a 96 well plate. The next day the cells were treated with each of the tested substances dissolved in DMSO. The tested substances were
in triplicates according to their solubility. Simultaneously, the controls representing 100% cell viability, 0% cell viability (the cells treated with 10% DMSO), no cell control and vehiculum controls were also
the reagent from the kit CellTiter 96 AQueous One Solution Cell Proliferation Assay (CellTiter 96; PROMEGA, Fitchburg, USA) was added. After 2h incubation at 37 °C, absorbance of samples was recorded at 490 nm (TECAN, Infinita M200, Austria). A standard toxicological parameter IC50 was calculated by nonlinear regression from a semilogarithmic plot of incubation concentration versus percentage of absorbance relative to untre ated controls using GraphPad Prism 8 software.

[5] = system: Candida albicans CCM 8320, ATCC 24433; assay: Antifungal microdilution broth MIC, CA
[6] = system: Acinetobacter baumannii DSM 30007, ATCC 19606; assay: Antibacterial microdilution broth MIC, ACI; assay type: cell-based
[7] = system: Escherichia coli CCM 3954, ATCC 25922; assay: Antibacterial microdilution broth MIC, EC; assay type: cell-based
[8] = system: Lichtheimia corymbifera CCM 8077; assay: Antifungal microdilution broth MIC, LC
[9] = system: Aspergillus flavus CCM 8363; assay: Antifungal microdilution broth MIC, AFla
[10] = system: Pseudomonas aeruginosa CCM 3955, ATCC 27853; assay: Antibacterial microdilution broth MIC, PA; assay type: cell-based
[11] = system: Candida tropicalis CCM 8264, ATCC 750; assay: Antifungal microdilution broth MIC, CT
[12] = system: Trichophyton interdigitale CCM 8377, ATCC 9533; assay: Antifungal microdilution broth MIC, TI; conditions: Trichophyton interdigitale
[13] = system: Mycolicibacterium smegmatis DSM 43465; assay: Antimycobacterial microdilution broth MIC (resazurin), M. smegmatis; assay type: cell-based; conditions: DSM43465, read-out: MIC M. smegmatis
[14] = system: Enterococcus faecalis CCM 4224, ATCC 29212; assay: Antibacterial microdilution broth MIC, EF; assay type: cell-based
[15] = system: Staphylococcus aureus CCM 4223, ATCC 29213; assay: Antibacterial microdilution broth MIC, SA; assay type: cell-based; conditions: Staphylococcus aureus
[16] = system: Mycobacterium tuberculosis H37Ra; assay: Antimycobacterial microdilution broth MIC (resazurin), Mtb H37Ra; assay type: cell-based; conditions: for MIC: Mycobacterium tuberculosis, H37RA, read-out: MIC Mtb H37Ra
[17] = system: Staphylococcus aureus subsp. aureus CCM 4750, ATCC 43300 (MRSA); assay: Antibacterial microdilution broth MIC, MRSA; assay type: cell-based; conditions: Staphylococcus aureus
[18] = system: Candida krusei CCM 8271, ATCC 6258; assay: Antifungal microdilution broth MIC, CK; conditions: Pichia kudriavzevii
[19] = system: Mycolicibacterium aurum DSM 43999; assay: Antimycobacterial microdilution broth MIC (resazurin), M. aurum; assay type: cell-based; conditions: DSM43999, read-out: MIC M. aurum
[20] = ATCC204305, 24 h, read-out: MIC AF 24h
[21] = ATCC204305, 48 h, read-out: MIC AF 48h
[22] = CCM8077, 24 h, read-out: MIC LC 24h
[23] = CCM8077, 48 h, read-out: MIC LC 48h
[24] = CCM8363, 24 h, read-out: MIC AFla 24h
[25] = CCM8363, 48 h, read-out: MIC AFla 48h

Compound | MIC ([1]; 24 h, read-out: MIC SE 24h) | MIC ([1]; 48 h, read-out: MIC SE 48h) | MIC KP 24h [2] | MIC KP 48h [2] | MIC ([3]; 24 h, read-out: MIC CP 24h) | MIC ([3]; 48 h, read-out: MIC CP 48h) | MIC [4, 20] | MIC [4, 21] | IC50 (HepG2 cell line) | MIC ([5]; 24 h, read-out: MIC CA 24h) | MIC ([5]; 48 h, read-out: MIC CA 48h) | MIC ([6]; 24 h, read-out: MIC ACI 24h) | MIC ([6]; 48 h, read-out: MIC ACI 48h) | MIC ([7]; 24 h, read-out: MIC EC 24h) | MIC ([7]; 48 h, read-out: MIC EC 48h) | MIC [8, 22] | MIC [8, 23] | MIC [9, 24] | MIC [9, 25] | MIC ([10]; 24 h, read-out: MIC PA 24h) | also measured
COc1cccc(CC(=O)Nc2ccc(Cl)cn2)c1 [Compound 8, 2-(3-methoxyphenyl)-N-(5-chloropyridin-2-yl)acetamide] | 250 µM (≈ 69.2 µg/mL) | > 500 µM | > 500 µM | > 500 µM | > 500 µM | > 500 µM | > 500 µM | > 500 µM | 158 µM | > 500 µM | > 500 µM | > 500 µM | > 500 µM | > 500 µM | > 500 µM | 500 µM (≈ 138 µg/mL) | 500 µM (≈ 138 µg/mL) | 500 µM (≈ 138 µg/mL) | 500 µM (≈ 138 µg/mL) | > 500 µM | MIC ([10]; 48 h, read-out: MIC PA 48h): > 500 µM; MIC ([11]; 24 h, read-out: MIC CT 24h): > 500 µM; MIC ([11]; 48 h, read-out: MIC CT 48h): > 500 µM; MIC ([12]; 72 h, read-out: MIC TI 72h): 500 µM (≈ 138 µg/mL); MIC ([12]; 120 h, read-out: MIC TI 120h): 500 µM (≈ 138 µg/mL); MIC [13]: > 500 µg/mL; MIC ([14]; 24 h, read-out: MIC EF 24h): > 500 µM; MIC ([14]; 48 h, read-out: MIC EF 48h): > 500 µM; MIC ([15]; 24 h, read-out: MIC SA 24h): 500 µM (≈ 138 µg/mL); MIC ([15]; 48 h, read-out: MIC SA 48h): > 500 µM; MIC ([16]; Calculated from MIC (μg/mL)): 113 µM; MIC [16]: 31.2 µg/mL; SI (selectivity index) ([16]; SI = HepG2 IC50 (μM)/MIC MtbH37Ra (μM), calculated for compounds with MIC ≤ 31.25 μg/mL): 1.4; MIC ([17]; 24 h, read-out: MIC MRSA 24h): > 500 µM; MIC ([17]; 48 h, read-out: MIC MRSA 48h): > 500 µM; MIC ([18]; 24 h, read-out: MIC CK 24h): 500 µM (≈ 138 µg/mL); MIC ([18]; 48 h, read-out: MIC CK 48h): 500 µM (≈ 138 µg/mL); MIC [19]: > 500 µg/mL
O=C(Cc1cccc(C(F)(F)F)c1)Nc1ccccn1 [Compound 25] | > 500 µM | > 500 µM | > 500 µM | > 500 µM | > 500 µM | > 500 µM | > 500 µM | > 500 µM | 724 µM | > 500 µM | > 500 µM | > 500 µM | > 500 µM | > 500 µM | > 500 µM | > 500 µM | > 500 µM | > 500 µM | > 500 µM | > 500 µM | MIC ([10]; 48 h, read-out: MIC PA 48h): > 500 µM; MIC ([11]; 24 h, read-out: MIC CT 24h): > 500 µM; MIC ([11]; 48 h, read-out: MIC CT 48h): > 500 µM; MIC ([12]; 72 h, read-out: MIC TI 72h): 500 µM (≈ 140 µg/mL); MIC ([12]; 120 h, read-out: MIC TI 120h): 500 µM (≈ 140 µg/mL); MIC [13]: > 500 µg/mL; MIC ([14]; 24 h, read-out: MIC EF 24h): > 500 µM; MIC ([14]; 48 h, read-out: MIC EF 48h): > 500 µM; MIC ([15]; 24 h, read-out: MIC SA 24h): > 500 µM; MIC ([15]; 48 h, read-out: MIC SA 48h): > 500 µM; MIC ([16]; Calculated from MIC (μg/mL)): 223 µM; MIC [16]: 62.5 µg/mL; MIC ([17]; 24 h, read-out: MIC MRSA 24h): > 500 µM; MIC ([17]; 48 h, read-out: MIC MRSA 48h): > 500 µM; MIC ([18]; 24 h, read-out: MIC CK 24h): > 500 µM; MIC ([18]; 48 h, read-out: MIC CK 48h): > 500 µM; MIC [19]: 125 µg/mL (≈ 446 µM)
